What was measured:
[1] = tested on: anterior lens capsule; settings: previous experimental studies; cited from earlier work
[2] = tested on: ARPE-19 cells; assay: MTT assay, ARPE-19 cells; settings: 0.2% and 0.02% dye, 10 minutes exposure, compared to BSS plus control
Description: ARPE-19 cells, a human retinal pigment epithelial cell line (42), were purchased from ATCC (Manassas, Va., USA) and grown in a 1:1 mixture of Dulbecco's modified Eagles medium and Ham's F12 medium (DMEM/Ham's F12, Biochrom), supplemented with 10% FCS (Biochrom).
For exposure of dyes RPE and ARPE-19 cells were kept for 24 hours under serum free conditions. After washing cells three times with PBS, cells were incubated for 10 minutes with 300 μl of BSS plus containing 0.2% or 0.02% of dye, respectively. […] The dye was then removed by carefully rinsing cells with BSS plus three times. After 24 hours incubation with serum containing media the cell proliferation assay was performed. RPE cells (p3-6) were seeded in 24-well plates and exposed to two concentrations (0.2 and 0.02%) of dyes. BSS plus alone and H2O2, (200 μL/mL) served as controls.
The tetrazolium dye-reduction assay (MTT; 3-[4,5-dimethylthiazol-2-yl]-2,5-diphenyl tetrazolium bromide;) was used to determine cell survival rate. […] The medium was removed, cells were washed with PBS, and 1000 μL/well MTT solution (1.5 mL MTT stock, 2 mg/mL in PBS, plus 28.5 mL DMEM) was added. RPE cells were incubated at 37° C. for 1 hour. The formazan crystals that formed were dissolved by the addition of dimethyl sulfoxide (DMSO; 1000 μL/well). Absorption was measured by a scanning multiwell spectrophotometer at 550 nm (Molecular Probes, Garching, Germany). […] Experiments were performed in triplicate and repeated three times. RPE and ARPE-19 cells of the same passage incubated with BSS without addition of dyes served as control. Statistical comparison between dye concentrations was performed with SPSS (Mann-Whitney-U-Test).
The MTT test as performed in this study is a well established test for the assessment of cell viability, but relies on calorimetric measurement of a blue (550 nm) formazan reaction product. This color overlaps with the absorption spectra of some of the dyes tested. […] Cell monolayers were treated with dyes as per the experiments described above but absorbance readings were performed without prior application of MTT. […]

O=S1(=O)OC(c2cc(Br)c(O)c(Br)c2)(c2cc(Br)c(O)c(Br)c2)c2ccccc21 [Bromophenol blue, Bromophenole blue]
safety for intraocular application [1]: safe for intraocular application
staining of the anterior lens capsule [1]: strongly stain
cell survival of ARPE-19 cells (MTT) [2]: no significant impact on cell survival

Source: US20080206149A1, “METHOD, DYE AND MEDICAMENT FOR STAINING THE INTERNAL LIMITING MEMBRANE, EPIRETINAL MEMBRANE, THE VITREOUS AND/OR THE CAPSULE OF AN EYE” (LUDWIG-MAXIMILIANS-UNIVERSITAT MUNCHEN, priority 2005, published 2008)
